Target: T1, CD73 (Homo sapiens, UniProt P21589)
T1 sequence (P21589 27-549): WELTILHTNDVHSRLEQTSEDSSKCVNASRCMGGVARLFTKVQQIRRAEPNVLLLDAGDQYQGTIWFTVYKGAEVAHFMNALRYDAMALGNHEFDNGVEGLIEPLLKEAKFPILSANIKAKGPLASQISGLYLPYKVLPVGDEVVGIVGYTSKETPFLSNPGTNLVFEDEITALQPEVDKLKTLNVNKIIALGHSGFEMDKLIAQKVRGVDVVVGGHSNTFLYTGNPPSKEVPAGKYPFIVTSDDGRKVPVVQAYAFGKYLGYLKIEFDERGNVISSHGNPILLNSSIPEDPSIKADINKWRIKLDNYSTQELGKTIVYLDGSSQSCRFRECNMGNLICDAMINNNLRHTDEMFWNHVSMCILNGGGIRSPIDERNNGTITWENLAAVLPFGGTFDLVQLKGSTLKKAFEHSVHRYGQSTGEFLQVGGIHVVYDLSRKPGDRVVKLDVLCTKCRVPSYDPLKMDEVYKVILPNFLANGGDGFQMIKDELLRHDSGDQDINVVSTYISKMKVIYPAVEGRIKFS
Assay: Biochemical assay of CD73 inhibition (Malachite Green)
Details: CD73 0.3208 nM, AMP 15 μM, Tris-HCl pH 7.4, Malachite Green absorbance readout; read-out: CD73_Biochem
Experimental: Example A1: Biochemical Assay
Assay Reaction Conditions
• Assay Volume: 70 μl • Reaction Volume: 50 μl • CD73: 0.3208 nM • AMP:15 μM • Assay Buffer: 2 5 mM Tris-HCL, pH 7.4, 0.01% Brij-35, 0.01% BSA, 5 mM MgCl2 Assay Procedure:
Made dose titration of testing compounds in assay buffer, 10 points 1/2 log titrations in duplicates starting at 100 μM.
Added 25 µl of CD73 to each well for a final concentration of […].
Incubated at RT for 15 min.
Added 25 µl of AMP to each well for a final concentration of 15 μM.
Incubated at RT for 10 min.
Added […] of Malachite Green Reagent A, incubate at RT for 10 min.
Added […] of Malachite Green Reagent B, incubate at RT for 45 min.
Read the Absorbance on Envision plate reader using excitation filter: Cy5 […].
The ability of the compounds disclosed herein to inhibit CD73 activity was quantified and the respective IC50 values were determined. Table 2 provides the biochemical IC50 values of compounds disclosed herein.

| SMILES | IC50 [nM] |
| --- | --- |
| O=P(O)(O)[C@](CO)(Cc1nn[nH]n1)OC[C@H]1O[C@@H](n2ncc3c(NCc4ccccc4Cl)nc(Cl)nc32)[C@H](O)[C@@H]1O (single isomer, unassigned) [Example 4] | 10 to 100 |
| COC[C@](Cc1nn[nH]n1)(OC[C@H]1O[C@@H](n2ncc3c(NC4CCC4)nc(CO)nc32)[C@H](O)[C@@H]1O)P(=O)(O)O [Example 9, ((R)-2-(((2R,3S,4R,5R)-5-(4-(cyclobutylamino)-6-(hydroxymethyl)-1H-pyrazolo[3,4-d]pyrimidin-1-yl)-3,4-dihydroxytetrahydrofuran-2-yl)methoxy)-1-methoxy-3-(2H-tetrazol-5-yl)propan-2-yl)phosphonic acid] | ≤ 10 |
| COC[C@](COCC(=O)O)(OC[C@H]1O[C@@H](n2ncc3c(NC4CCCC4)nc(Cl)nc32)[C@H](O)[C@@H]1O)P(=O)(O)O [Example 10] | 10 to 100 |
| COCC(CC(=O)NO)(OC[C@H]1O[C@@H](n2ncc3c(NC4CCCC4)nc(Cl)nc32)[C@H](O)[C@@H]1O)P(=O)(O)O (stereo partly drawn) [Example 11, (2-(((2R,3S,4R,5R)-5-(6-chloro-4-(cyclopentylamino)-1H-pyrazolo[3,4-d]pyrimidin-1-yl)-3,4-dihydroxytetrahydrofuran-2-yl)methoxy)-4-(hydroxyamino)-1-methoxy-4-oxobutan-2-yl)phosphonic acid] | ≤ 10 |
| COCC(CC(=O)NS(C)(=O)=O)(OC[C@H]1O[C@@H](n2ncc3c(NC4CCCC4)nc(Cl)nc32)[C@H](O)[C@@H]1O)P(=O)(O)O (stereo partly drawn) [Example 12, (2-(((2R,3S,4R,5R)-5-(6-chloro-4-(cyclopentylamino)-1H-pyrazolo[3,4-d]pyrimidin-1-yl)-3,4-dihydroxytetrahydrofuran-2-yl)methoxy)-1-methoxy-4-(methylsulfonamido)-4-oxobutan-2-yl)phosphonic acid] | ≤ 10 |
| O=P(O)(O)C(CO)(Cc1c[nH]nn1)OC[C@H]1O[C@@H](n2ncc3c(NC4CCCC4)nc(Cl)nc32)[C@H](O)[C@@H]1O (stereo partly drawn) [Example 13, (2-(((2R,3S,4R,5R)-5-(6-chloro-4-(cyclopentylamino)-1H-pyrazolo[3,4-d]pyrimidin-1-yl)-3,4-dihydroxytetrahydrofuran-2-yl)methoxy)-1-hydroxy-3-(1H-1,2,3-triazol-4-yl)propan-2-yl)phosphonic acid] | 10 to 100 |
| C[C@H]1CCC[C@@H]1Nc1nc(Cl)nc2c1cnn2[C@@H]1O[C@H](COC(CO)(CO)P(=O)(O)O)[C@@H](O)[C@H]1O [Example 14, (2-(((2R,3S,4R,5R)-5-(6-chloro-4-(((1S,2S)-2-methylcyclopentyl)amino)-1H-pyrazolo[3,4-d]pyrimidin-1-yl)-3,4-dihydroxytetrahydrofuran-2-yl)methoxy)-1,3-dihydroxypropan-2-yl)phosphonic acid] | ≤ 10 |

The remaining lines, values ahead:

| IC50 [nM] | SMILES |
| --- | --- |
| ≤ 10 | COCCOCC(COCc1nnn[nH]1)(OC[C@H]1O[C@@H](n2ncc3c(NC4CCCC4)nc(Cl)nc32)[C@H](O)[C@@H]1O)P(=O)(O)O (single isomer, unassigned) [Example 1] |
| ≤ 10 | O=P(O)(O)[C@@](CO)(Cc1nn[nH]n1)OC[C@H]1O[C@@H](n2ncc3c(NCc4ccccc4Cl)nc(Cl)nc32)[C@H](O)[C@@H]1O (single isomer, unassigned) [Example 3] |
| ≤ 10 | O=P(O)(O)C(COCc1nnn[nH]1)(Cc1nnn[nH]1)OC[C@H]1O[C@@H](n2ncc3c(NC4CCCC4)nc(Cl)nc32)[C@H](O)[C@@H]1O (stereo in doubt) [Example 41, ((S)-1-((1H-tetrazol-5-yl)methoxy)-2-(((2R,3S,4R,5R)-5-(6-chloro-4-(cyclopentylamino)-1H-pyrazolo[3,4-d]pyrimidin-1-yl)-3,4-dihydroxytetrahydrofuran-2-yl)methoxy)-3-(1H-tetrazol-5-yl)propan-2-yl)phosphonic acid] |
| ≤ 10 | O=P(O)(O)C(COCc1nnn[nH]1)(Cc1nnn[nH]1)OC[C@H]1O[C@@H](n2ncc3c(NC4CCCC4)nc(Cl)nc32)[C@H](O)[C@@H]1O (stereo in doubt) [Example 42, ((R)-1-((1H-tetrazol-5-yl)methoxy)-2-(((2R,3S,4R,5R)-5-(6-chloro-4-(cyclopentylamino)-1H-pyrazolo[3,4-d]pyrimidin-1-yl)-3,4-dihydroxytetrahydrofuran-2-yl)methoxy)-3-(1H-tetrazol-5-yl)propan-2-yl)phosphonic acid] |
| ≤ 10 | O=P(O)(O)C(COCc1nnn[nH]1)(COCC1CC1)OC[C@H]1O[C@@H](n2ncc3c(NC4CCCC4)nc(Cl)nc32)[C@H](O)[C@@H]1O (stereo in doubt) [Example 44, ((R)-1-((1H-tetrazol-5-yl)methoxy)-2-(((2R,3S,4R,5R)-5-(6-chloro-4-(cyclopentylamino)-1H-pyrazolo[3,4-d]pyrimidin-1-yl)-3,4-dihydroxytetrahydrofuran-2-yl)methoxy)-3-(cyclopropylmethoxy)propan-2-yl)phosphonic acid] |
| ≤ 10 | O=P(O)(O)C(COCc1nnn[nH]1)(COCC1CC1)OC[C@H]1O[C@@H](n2ncc3c(NC4CCCC4)nc(Cl)nc32)[C@H](O)[C@@H]1O (stereo in doubt) [Example 45, ((S)-1-((1H-tetrazol-5-yl)methoxy)-2-(((2R,3S,4R,5R)-5-(6-chloro-4-(cyclopentylamino)-1H-pyrazolo[3,4-d]pyrimidin-1-yl)-3,4-dihydroxytetrahydrofuran-2-yl)methoxy)-3-(cyclopropylmethoxy)propan-2-yl)phosphonic acid] |
| ≤ 10 | O=P(O)(O)C(CO)(CCCc1nn[nH]n1)OC[C@H]1O[C@@H](n2ncc3c(NC4CCCC4)nc(Cl)nc32)[C@H](O)[C@@H]1O (stereo partly drawn) [Example 5, (2-(((2R,3S,4R,5R)-5-(6-chloro-4-(cyclopentylamino)-1H-pyrazolo[3,4-d]pyrimidin-1-yl)-3,4-dihydroxytetrahydrofuran-2-yl)methoxy)-1-hydroxy-5-(2H-tetrazol-5-yl)pentan-2-yl)phosphonic acid] |
| ≤ 10 | COCC(CCC(=O)O)(OC[C@H]1O[C@@H](n2ncc3c(NC4CCCC4)nc(Cl)nc32)[C@H](O)[C@@H]1O)P(=O)(O)O (stereo partly drawn) [Example 6, 4-(((2R,3S,4R,5R)-5-(6-chloro-4-(cyclopentylamino)-1H-pyrazolo[3,4-d]pyrimidin-1-yl)-3,4-dihydroxytetrahydrofuran-2-yl)methoxy)-5-methoxy-4-phosphonopentanoic acid] |
| ≤ 10 | COC[C@@](CC(=O)NO)(OC[C@H]1O[C@@H](n2ncc3c(NC4CCCC4)nc(Cl)nc32)[C@H](O)[C@@H]1O)P(=O)(O)O [Example 7, ((S)-2-(((2R,3S,4R,5R)-5-(6-chloro-4-(cyclopentylamino)-1H-pyrazolo[3,4-d]pyrimidin-1-yl)-3,4-dihydroxytetrahydrofuran-2-yl)methoxy)-4-(hydroxyamino)-1-methoxy-4-oxobutan-2-yl)phosphonic acid] |
| ≤ 10 | COC[C@](CC(=O)NO)(OC[C@H]1O[C@@H](n2ncc3c(NC4CCCC4)nc(Cl)nc32)[C@H](O)[C@@H]1O)P(=O)(O)O [Example 8, ((R)-2-(((2R,3S,4R,5R)-5-(6-chloro-4-(cyclopentylamino)-1H-pyrazolo[3,4-d]pyrimidin-1-yl)-3,4-dihydroxytetrahydrofuran-2-yl)methoxy)-4-(hydroxyamino)-1-methoxy-4-oxobutan-2-yl)phosphonic acid] |

Reference: US11130778B2, “CD73 inhibitors” (ORIC Pharmaceuticals, Inc., priority 2019, dated 2021)
